# Results reported in patent US6664231B1, “Anti-fungal peptides” (priority 1993, dated 2003).
# Square brackets hold non-standard residues; d marks the D form. Ends that are not written are not given here. Peptide text beside a SMILES is read from it. Phe(4-NH2) = Nc1ccc(C[C@H](N)C(=O)O)cc1; 1Nal = N[C@@H](Cc1cccc2ccccc12)C(=O)O; NMeV = CN[C@H](C(=O)O)C(C)C; Aib = CC(C)(N)C(=O)O; Sar = CNCC(=O)O
# Tested on: C. albicans (CA-1, Strain SLU-1)
# Experiment: Radial diffusion assay
# Type: cell-based, Candida albicans
# Conditions: HPLC-purified peptide; nanomoles required to achieve a net 30 mm^2 zone (log titration curve)
# How it was run: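 Yeast at 1×10^6 CFU/mL in agarose underlayer (3% Sabouraud, 10 mM sodium phosphate pH 7.4); 2-fold peptide dilutions in D-PBS from ~1 mg/mL loaded into wells, 3 h at 37° C, then nutrient overlayer overnight. Value: pmol/well giving 30 mm^2 net clear zone, by PROBIT regression.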
row,Molecule,"Plate Assay (nmol), pure peptide activity"
1,H-SKVKWLIQLFHKK-NH2 [Peptide 284],0.373 nmol
2,H-WLIQLF-NH2 [compound 316],inactive
3,H-VKWLIQLFHKK-NH2 [Peptide 289],0.68 nmol

# Same assay, conditions: crude peptide; nanomoles required to achieve a net 30 mm^2 zone (log titration curve)
row,Molecule,"Plate Assay (nmol), crude peptide activity [nmol]"
1,H-SKVKWLIQLFHKK-NH2 [Peptide 284],1.460
2,H-WLIQLF-NH2 [compound 316],11.1
3,H-KVKWLIQLFH-NH2 [Peptide 291],>5.039
4,H-LIQLFHKK-NH2 [Peptide 304],>8.290
5,H-VKWLIQLFHKK-NH2 [Peptide 289],1.542
6,H-VKWLIQLFHK-NH2 [Peptide 292],>4.063
7,H-LIQLFHK-NH2 [Peptide 310],>9.475
8,H-SKVKWLIQLFHK-NH2 [Peptide 285],>3.024

# Same assay, conditions: pmoles of peptide added to well to achieve a 30 mm^2 zone, PROBIT analysis; crude or purified (P′) peptide
row,Molecule,C. albicans pmol/30 mm^2 zone
1,CC[C@H](C)[C@H](NC(=O)[C@H](CC(C)C)NC(=O)[C@H](C(C)C)N(C)C(=O)CNC(=O)[C@@H](NC(=O)[C@H](CCCCN)NC(=O)[C@H](CO)NC(=O)[C@@H](N)CCCCN)C(C)C)C(=O)N[C@@H](CCC(N)=O)C(=O)N[C@@H](CC(C)C)C(=O)N[C@@H](Cc1ccccc1)C(=O)N[C@@H](Cc1c[nH]cn1)C(=O)N[C@@H](CCCCN)C(=O)N[C@@H](CCCCN)C(N)=O [XMP.260] (H-KSKVG[NMeV]LIQLFHKK-NH2),742 pmol/30 mm^2 zone
2,H-QLFHKK-NH2 [XMP.319],b (No detectable activity up to 5 μg/well)
3,CC[C@H](C)[C@H](NC(=O)[C@H](CC(C)C)NC(=O)[C@H](Cc1c[nH]c2ccccc12)NC(=O)CNC(=O)[C@@H](NC(=O)[C@H](CCCCN)NC(=O)[C@H](CO)NC(=O)[C@@H](N)CCCCN)C(C)C)C(=O)N[C@@H](Cc1ccc(N)cc1)C(=O)N[C@@H](CC(C)C)C(=O)N[C@@H](Cc1ccccc1)C(=O)N[C@@H](Cc1cccc2ccccc12)C(=O)N[C@@H](CCCCN)C(=O)N[C@@H](CCCCN)C(N)=O [XMP.232] (H-KSKVGWLI[Phe(4-NH2)]LF[1Nal]KK-NH2),b (No detectable activity up to 5 μg/well)
4,H-WLIQLKK-NH2 [XMP.322],"3,488 pmol/30 mm^2 zone"
5,H-KSKVGGLIQLFHKK-NH2 [XMP.249],"1,242 pmol/30 mm^2 zone"
6,H-WLIQLFH-NH2 [XMP.309],b (No detectable activity up to 5 μg/well)
7,CC[C@H](C)[C@H](NC(=O)[C@H](CC(C)C)NC(=O)CN(C)C(=O)CNC(=O)[C@@H](NC(=O)[C@H](CCCCN)NC(=O)[C@H](CO)NC(=O)[C@@H](N)CCCCN)C(C)C)C(=O)N[C@@H](CCC(N)=O)C(=O)N[C@@H](CC(C)C)C(=O)N[C@@H](Cc1ccccc1)C(=O)N[C@@H](Cc1c[nH]cn1)C(=O)N[C@@H](CCCCN)C(=O)N[C@@H](CCCCN)C(N)=O [XMP.259] (H-KSKVG[Sar]LIQLFHKK-NH2),"2,117 pmol/30 mm^2 zone"
8,H-KSKVGWLIDLFHKK-NH2 [XMP.264],879 pmol/30 mm^2 zone
9,CC[C@H](C)[C@H](NC(=O)[C@H](CC(C)C)NC(=O)[C@H](Cc1c[nH]c2ccccc12)NC(=O)CNC(=O)[C@@H](NC(=O)[C@H](CCCCN)NC(=O)[C@H](CO)NC(=O)[C@@H](N)CCCCN)C(C)C)C(=O)N[C@@H](Cc1ccc(N)cc1)C(=O)N[C@@H](CC(C)C)C(=O)N[C@@H](Cc1ccccc1)C(=O)N[C@@H](Cc1c[nH]cn1)C(=O)N[C@@H](CCCCN)C(=O)N[C@@H](CCCCN)C(N)=O [XMP.123] (H-KSKVGWLI[Phe(4-NH2)]LFHKK-NH2),1721 pmol/30 mm^2 zone
10,KKVLIQLKK-NH2 [XMP.343],245 pmol/30 mm^2 zone
11,H-KSKVLWLIQLFHKK-NH2 [XMP.85],>1881 pmol/30 mm^2 zone
12,CC[C@H](C)[C@H](NC(=O)[C@H](CC(C)C)NC(=O)[C@H](Cc1c[nH]c2ccccc12)NC(=O)[C@H](Cc1ccc(N)cc1)NC(=O)[C@@H](N)Cc1ccc(N)cc1)C(=O)N[C@@H](CCC(N)=O)C(=O)N[C@@H](CC(C)C)C(=O)N[C@@H](Cc1ccc(N)cc1)C(=O)N[C@@H](Cc1ccc(N)cc1)C(N)=O [XMP.340] (H-[Phe(4-NH2)][Phe(4-NH2)]WLIQL[Phe(4-NH2)][Phe(4-NH2)]-NH2),b (No detectable activity up to 5 μg/well)
13,CC[C@H](C)[C@H](NC(=O)[C@H](CC(C)C)NC(=O)[C@H](Cc1cccc2ccccc12)NC(=O)CNC(=O)[C@@H](NC(=O)[C@H](CCCCN)NC(=O)[C@H](CO)NC(=O)[C@@H](N)CCCCN)C(C)C)C(=O)N[C@@H](CCC(N)=O)C(=O)N[C@@H](CC(C)C)C(=O)N[C@@H](Cc1ccccc1)C(=O)N[C@@H](Cc1c[nH]cn1)C(=O)N[C@@H](CCCCN)C(=O)N[C@@H](CCCCN)C(N)=O [XMP.83] (H-KSKVG[1Nal]LIQLFHKK-NH2),1804 pmol/30 mm^2 zone
14,CC[C@H](C)[C@H](NC(=O)[C@H](CC(C)C)NC(=O)[C@H](Cc1c[nH]c2ccccc12)NC(=O)CNC(=O)[C@@H](NC(=O)[C@H](CCCCN)NC(=O)[C@H](CO)NC(=O)[C@@H](N)CCCCN)C(C)C)C(=O)N[C@@H](CCC(N)=O)C(=O)N[C@@H](CC(C)C)C(=O)N[C@@H](Cc1ccccc1)C(=O)N[C@@H](Cc1cccc2ccccc12)C(=O)N[C@@H](CCCCN)C(=O)N[C@@H](CCCCN)C(N)=O [XMP.110] (H-KSKVGWLIQLF[1Nal]KK-NH2),>2922 pmol/30 mm^2 zone
15,H-KAKVGWLIQLFHKK-NH2 [XMP.32],294 pmol/30 mm^2 zone
16,H-KSKVAWLIQLFHKK-NH2 [XMP.35],442 pmol/30 mm^2 zone
17,H-KSAVGWLIQLFHKK-NH2 [XMP.33],603 pmol/30 mm^2 zone
18,XMP.408: L - K - K - K - W - A - I - Q (cyclized head to tail) (SEQ ID NO:239) (LKKKWAIQ; head-to-tail cyclized),b (No detectable activity up to 5 μg/well)

row,Molecule,C. albicans pmol/30 mm^2 zone
1,H-KSKVKVLIQLFHKK-NH2 [XMP.266],984 pmol/30 mm^2 zone
2,H-SKVKWLIQLFHK-NH2 [XMP.285],">3,024 pmol/30 mm^2 zone"
3,H-KSKVKALIQLFHKK-NH2 [XMP.161],>2999 pmol/30 mm^2 zone
4,CC[C@H](C)[C@H](NC(=O)[C@H](CC(C)C)NC(=O)[C@H](Cc1c[nH]c2ccccc12)NC(=O)[C@@H](N)CCCCN)C(=O)N[C@@H](CCC(N)=O)C(=O)N[C@@H](CC(C)C)C(=O)N[C@@H](CCCCN)C(N)=O [XMP.323],">4,627 pmol/30 mm^2 zone"
5,CC[C@H](C)[C@H](NC(=O)[C@H](CC(C)C)NC(=O)[C@H](Cc1c[nH]c2ccccc12)NC(=O)CNC(=O)[C@@H](NC(=O)[C@H](CCCCN)NC(=O)[C@H](CO)NC(=O)[C@@H](N)CCCCN)C(C)C)C(=O)N[C@@H](Cc1ccc(N)cc1)C(=O)N[C@@H](CC(C)C)C(=O)N[C@@H](Cc1ccccc1)C(=O)N[C@@H](Cc1c[nH]cn1)C(=O)N[C@@H](CCCCN)C(=O)N[C@@H](Cc1cccc2ccccc12)C(N)=O [XMP.228] (H-KSKVGWLI[Phe(4-NH2)]LFHK[1Nal]-NH2),b (No detectable activity up to 5 μg/well)
6,CC[C@H](C)[C@H](NC(=O)[C@H](CC(C)C)NC(=O)C(C)(C)NC(=O)CNC(=O)[C@@H](NC(=O)[C@H](CCCCN)NC(=O)[C@H](CO)NC(=O)[C@@H](N)CCCCN)C(C)C)C(=O)N[C@@H](CCC(N)=O)C(=O)N[C@@H](CC(C)C)C(=O)N[C@@H](Cc1ccccc1)C(=O)N[C@@H](Cc1c[nH]cn1)C(=O)N[C@@H](CCCCN)C(=O)N[C@@H](CCCCN)C(N)=O [XMP.257] (H-KSKVG[Aib]LIQLFHKK-NH2),"1,321 pmol/30 mm^2 zone"
7,XMP.384: K - K - L - L - L - L - Q - K - K (SEQ ID NO:215) (KKLLLLQKK),"2,804 pmol/30 mm^2 zone"
8,H-VKWLIQ-NH2 [XMP.314],">13,497 pmol/30 mm^2 zone"
9,H-IQLFHKK-NH2 [XMP.311],b (No detectable activity up to 5 μg/well)
10,"XMP.392: 150-161, P @ 152 (G) (SEQ ID NO:223) (KVPWLIQLFHKK)",569 pmol/30 mm^2 zone
11,H-KSKVGWLILLFHKK-NH2 [XMP.86],>2048 pmol/30 mm^2 zone
12,H-SKVKWL-NH2 [XMP.312],">11,120 pmol/30 mm^2 zone"
13,CC[C@H](C)[C@H](NC(=O)[C@H](CC(C)C)NC(=O)[C@@H](N)Cc1c[nH]c2ccccc12)C(=O)N[C@@H](CCC(N)=O)C(=O)N[C@@H](CC(C)C)C(=O)N[C@@H](Cc1ccccc1)C(=O)N[C@@H](Cc1c[nH]cn1)C(=O)N[C@@H](CCCCN)C(=O)N[C@@H](CCCCN)C(N)=O [XMP.298],"2,628 pmol/30 mm^2 zone"
14,H-KSKVGWLILLFHKKKSKVGWLILLFHKK-NH2 [XMP.272],">2,599 pmol/30 mm^2 zone"
15,H-KSKVGILIQLFHKK-NH2 [XMP.251],"1,289 pmol/30 mm^2 zone"
16,H-KSKVGWLIQLFLKK-NH2 [XMP.87],>1536 pmol/30 mm^2 zone
17,H-VKWLIQLFHK-NH2 [XMP.292],">4,463 pmol/30 mm^2 zone"

# Same assay, conditions: pmoles of peptide added to well to achieve a 30 mm^2 zone, PROBIT analysis; crude or purified (P′) peptide; listed as XMP.298P′
row,Molecule,C. albicans pmol/30 mm^2 zone
1,CC[C@H](C)[C@H](NC(=O)[C@H](CC(C)C)NC(=O)[C@@H](N)Cc1c[nH]c2ccccc12)C(=O)N[C@@H](CCC(N)=O)C(=O)N[C@@H](CC(C)C)C(=O)N[C@@H](Cc1ccccc1)C(=O)N[C@@H](Cc1c[nH]cn1)C(=O)N[C@@H](CCCCN)C(=O)N[C@@H](CCCCN)C(N)=O [XMP.298],"1,106 pmol/30 mm^2 zone"
